Measurements reported in paper PMC9977057, “Indenyl-thiazole and indenyl-formazan derivatives: Synthesis, anticancer screening studies, molecular-docking, and pharmacokinetic/ molin-spiration properties” (PLOS ONE, 2023).

Columns and labels:
normal cell = test: Cytotoxicity on a normal cell (for selectivity index); type: cell-based; conditions: for IC50: column head names no cell, normal cell according to b79; for SI (selectivity index): ratio IC50 on normal cell / IC50 on cancer cell line
Method: (§1) Sulforhodamine B(SRB) assay method was used to evaluate cytotoxicity. Exponentially growing cells were collected using 0.25% Trypsin‐EDTA seeded in 96‐well plates at 1000‐2000 cells/well in RBMI‐1640 supplemented medium. After 24 h, cells were incubated for 72 h with various concentrations of the tested compounds. Following 72 h treatments, the cells would be fixed with 10% trichloroacetic acid for 1 h at 4°C. Wells were stained for 10 minutes at room temperature with 0.4% SRBC (Sulphorhodamine B) dissolved in 1% acetic acid. After that, the plates were air-dried for 24 h. At the same time, the dye was dissolved in Tris‐HCl and left for 5 min on the shaker at 1600 rpm. Each well’s optical density (OD) was measured spectrophotometrically at 564 nm; by using an ELISA microplate reader (ChroMate‐4300, FL, USA). The IC50 values were calculated according to the equation for Boltzman sigmoidal concentration-response curve using the nonlinear regression fitting models (Graph Pad, Prism Version 9).
The compounds show good selectivity toward cancerous cells, represented by the “selectivity index.” The selectivity index was previously used to measure selective cytotoxic activity. The selectivity index (SI) can be calculated from the ratio between IC50 of the compound on a normal cell and the compound on a cancer cell line. For example, the SI of compounds 6d, 10a, 10d, and 16 are 86.98, 76.82, 74.32, and 54.13, respectively.

[1] = tested on: COLO205 cells (colon cancer); test: SRB cytotoxicity assay, colon cancer cells COLO205; type: cell-based
Method: (§2) A- Cell culture. The cells were obtained from the Egyptian Holding Company for Biological Products & Vaccines (VACSERA), Giza, Egypt, then maintained in the tissue culture unit. […] The cells were maintained as monolayer culture by serial sub‐culturing. Cell culture reagents were obtained from Lonza (Basel, Switzerland).
as §1, with “Exponentially growing cells were collected using 0.25% Trypsin‐EDTA seeded in 96‐well plates at 1000‐2000 cells/well in RBMI‐1640 supplemented medium.” left out

[2] = tested on: Gastric (SNU-16) Patch number (ATCC CRL-5822); test: SRB cytotoxicity assay, gastric cancer cells SNU-16; type: cell-based
Method: as §2
as §1, with “Exponentially growing cells were collected using 0.25% Trypsin‐EDTA seeded in 96‐well plates at 1000‐2000 cells/well in RBMI‐1640 supplemented medium.” left out

[3] = Homo sapiens, COLO 205, 72 h incubation
[4] = Homo sapiens, SNU-16, 72 h incubation

Row | Structure (SMILES) | melting point [°C] | IC50 (normal cell) [µM] | IC50 [1, 3] [µM] | IC50 [2, 4] [µM] | IC50 ([1]; 72 h incubation) [µM] | IC50 ([2]; 72 h incubation) [µM] | SI (selectivity index) (normal cell)
1 | Cc1nc(N/N=C2\CCc3cc(Br)ccc32)sc1/N=N/c1ccccc1 [6a, 2-(2h4(5-Bromo-2,3-dihydro-1H-inden-1-ylidene)hydrazineyl)-4-methyl-5-(phenyldiazenyl)-thiazole] | 220 to 222 | > 100 | 17.14 ± 0.12 | 21.79 ± 0.076 | – | – | –
2 | N.N.[Cl][Pt][Cl] [Cisplatin, reference compound] | – | 548 ± 61.2 | – | – | 9.13 ± 0.07 | 11.27 ± 0.076 | –
3 | Cc1cccc(N=Nc2sc(NN=C3CCc4cc(Br)ccc43)nc2C)c1 [6b, 2-(2-(5-Bromo-2,3-dihydro-1H-inden-1-ylidene)hydrazineyl)-4-methyl-5-(m-tolyldiazenyl)-thiazole] | 128 to 129 | > 100 | 9.813 ± 0.005 | 12.28 ± 0.03 | – | – | –
4 | Brc1ccc2c(c1)CCC2=NNc1nc(-c2ccccc2)cs1 [10a, N-(5-Bromo-indan-1-ylidene)-N’-(4-phenyl-thiazol-2-yl)-hydrazine] | – | 485 ± 7.89 | 6.301 ± 0.008 | 20 ± 0.64 | – | – | 76.82
5 | O=C(Nc1ccccc1)C(=NNc1ccccc1)NN=C1CCc2cc(Br)ccc21 [compound 16, 2-(2-(5-Bromo-2,3-dihydro-1H-inden-1-ylidene)hydrazineyl)-N-phenyl-2-(2-phenyl-hydrazineylidene)acetamide] | – | 525 ± 36.2 | 13.04 ± 0.025 | 9.699 ± 0.0726 | – | – | 54.13
6 | CCN(CC)CCNC(=O)c1c(C)[nH]c(/C=C2\C(=O)Nc3ccc(F)cc32)c1C [sunitinib, reference compound] | – | 378 ± 31.8 | 11.27 ± 0.033 | 8.45 ± 0.023 | – | – | –
7 | NN=C1CCc2cc(Br)ccc21 [compound 4, (5-Bromo-indan-1-ylidene)-hydrazine] | 120 | > 100 | 8.167 ± 0.07 | 23.2 ± 0.204 | – | – | –
8 | Clc1ccc(-c2csc(NN=C3CCc4cc(Br)ccc43)n2)cc1 [10d, N-(5-Bromo-indan-1-ylidene)-N’-[4-(4-chloro-phenyl)-thiazol-2-yl]-hydrazine] | – | 563 ± 44.2 | 12.16 ± 0.06 | 7.576 ± 0.075 | – | – | 74.32
9 | Cc1nc(NN=C2CCc3cc(Br)ccc32)sc1N=Nc1ccc(Cl)cc1 [6e, 2-(2-(5-Bromo-2,3-dihydro-1H-inden-1-ylidene)hydrazineyl)-5-((4-chlorophenyl)diazenyl)-4-methylthiazole] | 177 to 178 | > 100 | 7.276 ± 0.03 | 26.19 ± 0.12 | – | – | –
10 | CCOC(=O)C(=NNc1ccccc1)NN=C1CCc2cc(Br)ccc21 [compound 15, Ethyl 2-(2-(5-bromo-2,3-dihydro-1H-inden-1-ylidene)hydrazineyl)-2-(2-phenyl-hydrazineylidene)acetate] | 174 to 176 | > 100 | 13.63 ± 0.04 | 16.6 ± 0.38 | – | – | –
11 | Cc1ccc(N=Nc2sc(NN=C3CCc4cc(Br)ccc43)nc2C)cc1 [6c, 2-(2-(5-Bromo-2,3-dihydro-1H-inden-1-ylidene)hydrazineyl)-4-methyl-5-(p-tolyldiazenyl)thiazole] | 130 to 132 | > 100 | 7.576 ± 0.07 | 12.89 ± 0.076 | – | – | –
12 | NC(=S)NN=C1CCc2cc(Br)ccc21 [compound 3, 2-(5-Bromo-2,3-dihydro-1H-inden-1-ylidene)hydrazine-1-carbothioamide] | 227 to 230 | > 100 | 14.1 ± 0.04 | 19.01 ± 0.133 | – | – | –
13 | Cc1nc(NN=C2CCc3cc(Br)ccc32)sc1N=Nc1cccc(Cl)c1 [6d, 2-(2-(5-Bromo-2,3-dihydro-1H-inden-1-ylidene)hydrazineyl)-5-((3-chlorophenyl)-diazenyl)-4-methylthiazole] | – | 605 ± 35.2 | 6.958 ± 0.04 | 19.79 ± 0.129 | – | – | 86.98

Further lines, with some results ahead:

Row | melting point [°C] | Structure (SMILES) | IC50 (normal cell) [µM] | IC50 [1, 3] [µM] | IC50 [2, 4] [µM] | IC50 ([1]; 72 h incubation) [µM] | IC50 ([2]; 72 h incubation) [µM] | SI (selectivity index) (normal cell)
14 | 197 to 198 | CC(=O)/C(=N\Nc1ccc(Cl)cc1)N/N=C1\CCc2cc(Br)ccc21 [14b, N’-(5-bromo-2,3-dihydro-1H-inden-1-ylidene)-N’’-(4-chlorophenyl)-2-oxopropanehydrazon-hydrazide] | > 100 | 10.61 ± 0.09 | 13.8 ± 0.69 | – | – | –
15 | 190 | CC(=O)C(=NNc1ccccc1)NN=C1CCc2cc(Br)ccc21 [14a, N’-(5-bromo-2,3-dihydro-1H-inden-1-ylidene)-2-oxo-N’’-phenylpropanehydrazonhydrazide] | > 100 | 11.27 ± 0.046 | 14.9 ± 0.3 | – | – | –
16 | 233 to 234 | Cc1ccc(-c2csc(NN=C3CCc4cc(Br)ccc43)n2)cc1 [10b, N-(5-Bromo-indan-1-ylidene)-N’-(4-p-tolyl-thiazol-2-yl)-hydrazine] | > 100 | 12.08 ± 0.006 | 18.3 ± 0.39 | – | – | –
17 | 230 to 232 | Brc1ccc(-c2csc(NN=C3CCc4cc(Br)ccc43)n2)cc1 [10c, N-(5-Bromo-indan-1-ylidene)-N’-[4-(4-bromo-phenyl)-thiazol-2-yl]-hydrazine] | > 100 | 13.81 ± 0.025 | 26.8 ± 0.6 | – | – | –
